Laboratory results taken from PubChem BioAssay (NCI).
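Protocol summary: plate cells (96-well), add compound at 5 concentrations, incubate 48 h, interpolate endpoints linearly. At the GI50, growth is halved. TGI: total growth inhibition.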

Legend:
Experiment in all cases: NCI-60 cell line screen, 48 h
MCF7 breast = test system: MCF7 breast
MDA-MB-231 breast = test system: MDA-MB-231 breast
UACC-62 melanoma = test system: UACC-62 melanoma
NCI-H522 lung = test system: NCI-H522 lung
HT29 colon = test system: HT29 colon
MDA-MB-435 = test system: MDA-MB-435
MALME-3M melanoma = test system: MALME-3M melanoma
NCI-H226 lung = test system: NCI-H226 lung
DU-145 prostate = test system: DU-145 prostate
K-562 leukemia = test system: K-562 leukemia

| SMILES | GI50 (MCF7 breast) [µM] | TGI (MCF7 breast) [µM] | GI50 (MDA-MB-231 breast) [µM] | TGI (MDA-MB-231 breast) [µM] | GI50 (UACC-62 melanoma) [µM] | TGI (UACC-62 melanoma) [µM] | GI50 (NCI-H522 lung) [µM] | TGI (NCI-H522 lung) [µM] | GI50 (HT29 colon) [µM] | TGI (HT29 colon) [µM] | GI50 (MDA-MB-435) [µM] | TGI (MDA-MB-435) [µM] | GI50 (MALME-3M melanoma) [µM] | TGI (MALME-3M melanoma) [µM] | GI50 (NCI-H226 lung) [µM] | TGI (NCI-H226 lung) [µM] | GI50 (DU-145 prostate) [µM] | TGI (DU-145 prostate) [µM] | GI50 (K-562 leukemia) [µM] | TGI (K-562 leukemia) [µM] |
| --- | --- | --- | --- | --- | --- | --- | --- | --- | --- | --- | --- | --- | --- | --- | --- | --- | --- | --- | --- | --- |
| Cn1cc(C2=C(c3ccc(N)cc3)C(=O)NC2=O)c2ccccc21 | 13.7 | > 25 | > 23 | > 25 | 11.8 | > 25 | 15.4 | > 25 | 12.5 | > 25 | 5.71 | 24.4 | > 25 | > 25 | 16.1 | > 25 | > 25 | > 25 | 9.71 | > 25 |
| C(=NCCN1CCOCC1)=NC1CCCCC1 | – | > 100 | – | > 100 | – | > 100 | – | > 100 | – | > 100 | – | > 100 | – | > 100 | – | > 100 | – | > 100 | – | > 100 |
| CCN(CC)CCC(CNc1ccnc2cc(Cl)ccc12)c1ccc(Cl)cc1 (stereo not given) | 1.06 | 2.32 | 1.28 | 3.21 | 1.18 | 2.69 | 0.608 | 2.19 | 0.282 | 1.49 | 0.402 | 1.65 | 1.4 | 3.16 | 2.46 | 8.19 | 5.44 | 17.7 | 0.312 | 1.16 |
| O=C(Nc1ccc2ncccc2c1)Nc1ccc2ncccc2c1 | – | > 100 | – | > 100 | – | > 100 | – | > 100 | – | > 100 | – | > 100 | – | > 100 | – | > 100 | – | > 100 | – | > 100 |
| CSC1=Nc2c(c(C)c(C)n2COC(CO)CO)C2=NC(=O)C(C)N12 (stereo not given) | > 100 | > 100 | > 100 | > 100 | > 100 | > 100 | > 100 | > 100 | > 100 | > 100 | > 100 | > 100 | > 100 | > 100 | > 100 | > 100 | > 100 | > 100 | > 100 | > 100 |
| NC(=O)/C=C/C(=O)c1c(Cl)cccc1Cl | 0.444 | 1.79 | 1.23 | 2.47 | 1.51 | 2.84 | 0.204 | 0.432 | 1.55 | > 100 | 1.3 | 3.48 | 0.358 | 1.71 | 2.52 | 8.25 | 1.65 | 3.04 | 0.653 | 5.83 |
| Cn1c(I)c(C#CCO[Si](C)(C)C(C)(C)C)c(=O)[nH]c1=O | 15 | 33.2 | 17.3 | 33.1 | 17.2 | 32.2 | 1.8 | 3.95 | 20.9 | 39.7 | 13.9 | 27.8 | 1.78 | 3.85 | 17.1 | 32.7 | 15.3 | 28.6 | 2.06 | 4.36 |
| COc1cccc(F)c1C(=O)c1cnc(NC2CCN(S(C)(=O)=O)CC2)nc1N | 0.326 | > 25 | 2.74 | > 22.1 | 2.66 | 9.42 | 7.87 | > 23.7 | 2.54 | 23.3 | 2.48 | > 25 | 4.35 | 13.7 | 3.72 | > 18.9 | 6.54 | > 22.8 | 6.55 | > 25 |
| CC(=O)OC1COC(Oc2c(C)c3c4c(c2O)[C@@H](C)CC[C@@H]4[C@@H](C)C[C@H]3C=C(C)C)C(O)C1OC(C)=O (stereo not given in full) | 17.5 | > 100 | 16.2 | 31.9 | 15.1 | 28.9 | 17.6 | 35 | 25.6 | 74.4 | 10.8 | 23.8 | 15.2 | 32.3 | 14.2 | 31.4 | 16 | 32.5 | 12.5 | 32.8 |
| c1ccc(-c2nnc(-c3ccccn3)s2)nc1 | 0.788 | > 100 | 72.5 | > 100 | > 100 | > 100 | > 100 | > 100 | > 100 | > 100 | > 100 | > 100 | > 100 | > 100 | > 100 | > 100 | > 100 | > 100 | > 100 | > 100 |
| N#Cc1c(NC(=O)NCc2ccccc2)sc2c1CCCCC2 | 0.353 | > 100 | 0.973 | 13.9 | 0.533 | > 40.2 | 0.601 | 25.3 | 0.398 | > 100 | 0.22 | 0.564 | 0.524 | > 100 | 1.05 | > 28.8 | 0.564 | 4.71 | 0.371 | > 100 |
| O=C(Nc1ccc(Br)cc1F)c1cc(F)ccc1O | 1.29 | 7.14 | 0.41 | 4 | 0.285 | 1 | 0.319 | 4.47 | 3.19 | > 36.7 | 0.539 | 4.41 | 0.335 | 1.53 | 0.67 | 3.46 | 0.698 | 64.6 | 0.445 | > 100 |
| N#Cc1c(N)nc(N2CCOCC2)c(C#N)c1-c1ccncc1 | 34.5 | > 100 | 21.6 | > 100 | 27 | > 100 | 22.7 | > 100 | > 100 | > 100 | > 100 | > 100 | 9.04 | 98.1 | 75.9 | > 100 | > 100 | > 100 | > 100 | > 100 |
